According to patent US12637424B2, “Pharmaceutical salt of an arylpyrrole derivative” (SENTINEL ONCOLOGY LIMITED, priority 2020, dated 2026):

Tests used:
Assay in all cases: DiscoverX KinomeScreen competition binding assay (kinase selectivity panel)
[1] = molecular target: T1, panel of ninety-seven kinases (Homo sapiens, UniProt P42336); details: PIK3CA; screened at 3000 nM
T1 construct: purchased DiscoverX; host or cells: E. coli (BL21-derived, T7 phage display) or HEK-293
Experimental: (§1) This has been investigated by testing atropisomer A-2 for off-target activity against a panel of ninety-seven kinases distributed across the kinome at a concentration of 3 μM using the DiscoverX KinomeScreen assay. The DiscoverX KinomeScreen assay is a site-directed competition binding assay which measures the binding affinity of a compound to a kinase, by use of a solid supported control compound which can bind or capture the kinases in solution. In the absence of a kinase-inhibitor test compound, all of the kinase will bind to the solid support. If a kinase-inhibitor test compound is added to the assay mix, the amount of kinase binding to the solid support will be reduced, the extent of reduction being dependent on the potency of the test compound as a kinase inhibitor. […] For most assays, kinase-tagged T7 phage strains were grown in parallel in 24-well blocks in an E. coli host derived from the BL21 strain. E. coli were grown to log-phase and infected with T7 phage from a frozen stock (multiplicity of infection=0.4) and incubated with shaking at 32° C. until lysis (90-150 minutes). The lysates were centrifuged (6,000×g) and filtered (0.2 μm) to remove cell debris. The remaining kinases were produced in HEK-293 cells and subsequently tagged with DNA for qPCR detection. Streptavidin-coated magnetic beads were treated with biotinylated small molecule ligands for 30 minutes at room temperature to generate affinity resins for kinase assays. The liganded beads were blocked with excess biotin and washed with blocking buffer (SeaBlock (Pierce), 1% BSA, 0.05% Tween 20, 1 mM DTT) to remove unbound ligand and to reduce non-specific phage binding. […] Test compounds were prepared as 40× stocks in 100% DMSO and directly diluted into the assay. All reactions were performed in polypropylene 384-well plates in a final volume of 0.02 ml. […] The beads were then re-suspended in elution buffer (1×PBS, 0.05% Tween 20, 0.5 μM non-biotinylated affinity ligand) and incubated at room temperature with shaking for 30 minutes. The kinase concentration in the eluates was measured by qPCR. Compounds that bind the kinase active site and directly (sterically) or indirectly (allosterically) prevent kinase binding to the immobilized ligand, will reduce the amount of kinase captured on the solid support. […] The strength of binding of the test molecule to the kinase can be expressed as the percent control (% Ctrl) The compound(s) were screened at 3000 nM concentration, and results for primary screen binding interactions are reported as ‘% Ctrl’, where lower numbers indicate stronger hits in the matrix on the following page(s). [formula] • negative control=DMSO (100% Ctrl) • positive control=control compound (0% Ctrl)

[2] = molecular target: T2, panel of ninety-seven kinases (Homo sapiens, UniProt P06213); details: INSR; screened at 3000 nM
T2 construct: purchased DiscoverX; host or cells: E. coli (BL21-derived, T7 phage display) or HEK-293
Experimental: as §1

[3] = molecular target: T3, panel of ninety-seven kinases (Homo sapiens, UniProt P31751); details: AKT2; screened at 3000 nM
T3 construct: purchased DiscoverX; host or cells: E. coli (BL21-derived, T7 phage display) or HEK-293
Experimental: as §1

[4] = molecular target: T4, panel of ninety-seven kinases (Homo sapiens, UniProt P07333); details: CSF1R; screened at 3000 nM
T4 construct: purchased DiscoverX; host or cells: E. coli (BL21-derived, T7 phage display) or HEK-293
T4 sequence (P07333 20-972): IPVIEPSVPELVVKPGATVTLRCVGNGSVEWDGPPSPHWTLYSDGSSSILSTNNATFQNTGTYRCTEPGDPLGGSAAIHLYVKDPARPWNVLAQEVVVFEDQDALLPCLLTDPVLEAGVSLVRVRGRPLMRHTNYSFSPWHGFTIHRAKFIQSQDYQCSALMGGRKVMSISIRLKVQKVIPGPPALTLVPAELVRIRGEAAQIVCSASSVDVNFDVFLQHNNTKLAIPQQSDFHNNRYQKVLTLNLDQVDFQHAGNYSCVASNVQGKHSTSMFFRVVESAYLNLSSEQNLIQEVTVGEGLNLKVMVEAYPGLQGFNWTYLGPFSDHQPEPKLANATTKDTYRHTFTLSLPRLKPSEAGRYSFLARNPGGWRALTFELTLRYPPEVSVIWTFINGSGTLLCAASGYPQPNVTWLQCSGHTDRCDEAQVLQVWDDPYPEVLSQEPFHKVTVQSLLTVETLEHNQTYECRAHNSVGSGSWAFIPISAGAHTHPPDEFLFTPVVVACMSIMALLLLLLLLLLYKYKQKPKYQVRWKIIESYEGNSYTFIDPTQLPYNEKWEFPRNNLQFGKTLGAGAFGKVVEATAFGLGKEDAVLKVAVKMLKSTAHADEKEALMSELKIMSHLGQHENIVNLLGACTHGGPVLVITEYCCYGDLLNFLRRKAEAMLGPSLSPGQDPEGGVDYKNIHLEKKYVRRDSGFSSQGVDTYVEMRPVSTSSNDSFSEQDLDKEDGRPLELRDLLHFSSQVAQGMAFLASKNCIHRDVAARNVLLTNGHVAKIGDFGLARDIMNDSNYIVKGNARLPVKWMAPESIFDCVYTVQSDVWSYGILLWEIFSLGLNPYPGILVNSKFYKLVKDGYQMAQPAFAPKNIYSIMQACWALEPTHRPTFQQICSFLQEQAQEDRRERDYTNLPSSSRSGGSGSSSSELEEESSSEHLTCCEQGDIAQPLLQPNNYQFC
Experimental: as §1

[5] = molecular target: T5, panel of ninety-seven kinases (Homo sapiens, UniProt P53779); details: MAPK10; screened at 3000 nM
T5 construct: purchased DiscoverX; host or cells: E. coli (BL21-derived, T7 phage display) or HEK-293
Experimental: as §1

[6] = molecular target: T6, panel of ninety-seven kinases (Homo sapiens, UniProt Q9UM73); details: ALK; screened at 3000 nM
T6 construct: purchased DiscoverX; host or cells: E. coli (BL21-derived, T7 phage display) or HEK-293
T6 sequence (Q9UM73 19-1620): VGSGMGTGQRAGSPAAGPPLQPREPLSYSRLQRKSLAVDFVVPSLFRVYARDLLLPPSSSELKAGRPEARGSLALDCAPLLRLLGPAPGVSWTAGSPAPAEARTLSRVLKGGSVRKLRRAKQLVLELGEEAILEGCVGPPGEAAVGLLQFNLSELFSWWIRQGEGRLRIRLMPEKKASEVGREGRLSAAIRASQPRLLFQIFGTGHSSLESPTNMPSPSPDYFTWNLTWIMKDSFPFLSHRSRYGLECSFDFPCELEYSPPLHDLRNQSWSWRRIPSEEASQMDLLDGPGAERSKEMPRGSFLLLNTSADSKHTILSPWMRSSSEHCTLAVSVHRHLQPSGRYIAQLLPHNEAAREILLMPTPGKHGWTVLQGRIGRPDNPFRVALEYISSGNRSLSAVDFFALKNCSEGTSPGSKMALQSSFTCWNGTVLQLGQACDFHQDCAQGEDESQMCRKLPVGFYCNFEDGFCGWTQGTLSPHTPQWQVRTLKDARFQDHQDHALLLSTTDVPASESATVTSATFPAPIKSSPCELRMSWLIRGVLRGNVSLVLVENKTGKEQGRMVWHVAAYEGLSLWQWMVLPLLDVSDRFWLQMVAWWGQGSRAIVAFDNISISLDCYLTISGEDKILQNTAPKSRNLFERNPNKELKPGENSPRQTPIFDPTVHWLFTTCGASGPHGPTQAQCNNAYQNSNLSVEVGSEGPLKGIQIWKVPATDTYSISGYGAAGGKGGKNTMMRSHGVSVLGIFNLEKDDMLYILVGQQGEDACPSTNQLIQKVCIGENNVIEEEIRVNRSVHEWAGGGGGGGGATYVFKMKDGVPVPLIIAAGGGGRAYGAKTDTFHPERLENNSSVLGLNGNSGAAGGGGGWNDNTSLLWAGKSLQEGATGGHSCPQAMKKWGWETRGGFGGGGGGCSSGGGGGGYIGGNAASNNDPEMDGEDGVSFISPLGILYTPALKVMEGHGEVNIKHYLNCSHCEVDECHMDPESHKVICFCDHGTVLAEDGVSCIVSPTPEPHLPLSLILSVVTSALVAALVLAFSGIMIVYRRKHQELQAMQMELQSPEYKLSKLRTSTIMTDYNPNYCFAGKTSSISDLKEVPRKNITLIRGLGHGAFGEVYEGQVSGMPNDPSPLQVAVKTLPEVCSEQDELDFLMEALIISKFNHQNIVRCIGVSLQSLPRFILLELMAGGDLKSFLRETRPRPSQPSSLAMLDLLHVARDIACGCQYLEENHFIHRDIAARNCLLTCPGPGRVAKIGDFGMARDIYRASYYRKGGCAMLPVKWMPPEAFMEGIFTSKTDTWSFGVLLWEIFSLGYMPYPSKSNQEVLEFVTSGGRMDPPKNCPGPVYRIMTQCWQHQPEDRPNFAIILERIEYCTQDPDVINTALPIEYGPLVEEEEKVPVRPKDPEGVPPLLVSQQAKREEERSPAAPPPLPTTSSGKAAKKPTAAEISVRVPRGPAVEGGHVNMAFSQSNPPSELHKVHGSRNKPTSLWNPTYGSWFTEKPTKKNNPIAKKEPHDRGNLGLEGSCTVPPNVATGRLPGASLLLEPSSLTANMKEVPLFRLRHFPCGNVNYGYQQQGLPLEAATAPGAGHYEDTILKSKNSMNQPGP
Experimental: as §1

[7] = molecular target: T7, panel of ninety-seven kinases (Homo sapiens, UniProt P48736); details: PIK3CG; screened at 3000 nM
T7 construct: purchased DiscoverX; host or cells: E. coli (BL21-derived, T7 phage display) or HEK-293
Experimental: as §1

[8] = molecular target: T8, panel of ninety-seven kinases (Homo sapiens, UniProt Q13153); details: PAK1; screened at 3000 nM
T8 construct: purchased DiscoverX; host or cells: E. coli (BL21-derived, T7 phage display) or HEK-293
Experimental: as §1

[9] = molecular target: T9, panel of ninety-seven kinases (Homo sapiens, UniProt P21802); details: FGFR2; screened at 3000 nM
T9 construct: purchased DiscoverX; host or cells: E. coli (BL21-derived, T7 phage display) or HEK-293
Experimental: as §1

[10] = molecular target: T10, panel of ninety-seven kinases (Homo sapiens, UniProt O15111); details: CHUK; screened at 3000 nM
T10 construct: purchased DiscoverX; host or cells: E. coli (BL21-derived, T7 phage display) or HEK-293
Experimental: as §1

[11] = molecular target: T11, panel of ninety-seven kinases (Homo sapiens, UniProt Q9P1W9); details: PIM2; screened at 3000 nM
T11 construct: purchased DiscoverX; host or cells: E. coli (BL21-derived, T7 phage display) or HEK-293
T11 sequence (Q9P1W9 whole entry): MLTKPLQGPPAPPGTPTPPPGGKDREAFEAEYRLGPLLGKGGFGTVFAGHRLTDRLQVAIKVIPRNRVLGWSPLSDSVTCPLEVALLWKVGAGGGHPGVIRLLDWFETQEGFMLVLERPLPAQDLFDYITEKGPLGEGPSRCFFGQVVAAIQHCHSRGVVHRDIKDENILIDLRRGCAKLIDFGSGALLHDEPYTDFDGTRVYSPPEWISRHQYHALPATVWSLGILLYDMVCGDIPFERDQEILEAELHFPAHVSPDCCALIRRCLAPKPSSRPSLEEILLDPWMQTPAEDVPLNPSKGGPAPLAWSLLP
Experimental: as §1

[12] = molecular target: T12, panel of ninety-seven kinases (Homo sapiens, UniProt Q02763); details: TEK; screened at 3000 nM
T12 construct: purchased DiscoverX; host or cells: E. coli (BL21-derived, T7 phage display) or HEK-293
Experimental: as §1

[13] = molecular target: T13, panel of ninety-seven kinases (Homo sapiens, UniProt Q00536); details: CDK16; screened at 3000 nM
T13 construct: purchased DiscoverX; host or cells: E. coli (BL21-derived, T7 phage display) or HEK-293
Experimental: as §1

[14] = molecular target: T14, panel of ninety-seven kinases (Homo sapiens, UniProt P17612); details: PRKACA; screened at 3000 nM
T14 construct: purchased DiscoverX; host or cells: E. coli (BL21-derived, T7 phage display) or HEK-293
Experimental: as §1

[15] = molecular target: T15, panel of ninety-seven kinases (Homo sapiens, UniProt Q8NI60); details: CABC1; screened at 3000 nM
T15 construct: purchased DiscoverX; host or cells: E. coli (BL21-derived, T7 phage display) or HEK-293
Experimental: as §1

[16] = molecular target: T16, panel of ninety-seven kinases (Homo sapiens, UniProt P80192); details: MAP3K9; screened at 3000 nM
T16 construct: purchased DiscoverX; host or cells: E. coli (BL21-derived, T7 phage display) or HEK-293
Experimental: as §1

[17] = molecular target: T17, panel of ninety-seven kinases (Homo sapiens, UniProt P50750); details: CDK9; screened at 3000 nM
T17 construct: purchased DiscoverX; host or cells: E. coli (BL21-derived, T7 phage display) or HEK-293
Experimental: as §1

[18] = molecular target: T18, panel of ninety-seven kinases (Homo sapiens, UniProt Q9Y6R4); details: MAP3K4; screened at 3000 nM
T18 construct: purchased DiscoverX; host or cells: E. coli (BL21-derived, T7 phage display) or HEK-293
T18 sequence (Q9Y6R4 whole entry): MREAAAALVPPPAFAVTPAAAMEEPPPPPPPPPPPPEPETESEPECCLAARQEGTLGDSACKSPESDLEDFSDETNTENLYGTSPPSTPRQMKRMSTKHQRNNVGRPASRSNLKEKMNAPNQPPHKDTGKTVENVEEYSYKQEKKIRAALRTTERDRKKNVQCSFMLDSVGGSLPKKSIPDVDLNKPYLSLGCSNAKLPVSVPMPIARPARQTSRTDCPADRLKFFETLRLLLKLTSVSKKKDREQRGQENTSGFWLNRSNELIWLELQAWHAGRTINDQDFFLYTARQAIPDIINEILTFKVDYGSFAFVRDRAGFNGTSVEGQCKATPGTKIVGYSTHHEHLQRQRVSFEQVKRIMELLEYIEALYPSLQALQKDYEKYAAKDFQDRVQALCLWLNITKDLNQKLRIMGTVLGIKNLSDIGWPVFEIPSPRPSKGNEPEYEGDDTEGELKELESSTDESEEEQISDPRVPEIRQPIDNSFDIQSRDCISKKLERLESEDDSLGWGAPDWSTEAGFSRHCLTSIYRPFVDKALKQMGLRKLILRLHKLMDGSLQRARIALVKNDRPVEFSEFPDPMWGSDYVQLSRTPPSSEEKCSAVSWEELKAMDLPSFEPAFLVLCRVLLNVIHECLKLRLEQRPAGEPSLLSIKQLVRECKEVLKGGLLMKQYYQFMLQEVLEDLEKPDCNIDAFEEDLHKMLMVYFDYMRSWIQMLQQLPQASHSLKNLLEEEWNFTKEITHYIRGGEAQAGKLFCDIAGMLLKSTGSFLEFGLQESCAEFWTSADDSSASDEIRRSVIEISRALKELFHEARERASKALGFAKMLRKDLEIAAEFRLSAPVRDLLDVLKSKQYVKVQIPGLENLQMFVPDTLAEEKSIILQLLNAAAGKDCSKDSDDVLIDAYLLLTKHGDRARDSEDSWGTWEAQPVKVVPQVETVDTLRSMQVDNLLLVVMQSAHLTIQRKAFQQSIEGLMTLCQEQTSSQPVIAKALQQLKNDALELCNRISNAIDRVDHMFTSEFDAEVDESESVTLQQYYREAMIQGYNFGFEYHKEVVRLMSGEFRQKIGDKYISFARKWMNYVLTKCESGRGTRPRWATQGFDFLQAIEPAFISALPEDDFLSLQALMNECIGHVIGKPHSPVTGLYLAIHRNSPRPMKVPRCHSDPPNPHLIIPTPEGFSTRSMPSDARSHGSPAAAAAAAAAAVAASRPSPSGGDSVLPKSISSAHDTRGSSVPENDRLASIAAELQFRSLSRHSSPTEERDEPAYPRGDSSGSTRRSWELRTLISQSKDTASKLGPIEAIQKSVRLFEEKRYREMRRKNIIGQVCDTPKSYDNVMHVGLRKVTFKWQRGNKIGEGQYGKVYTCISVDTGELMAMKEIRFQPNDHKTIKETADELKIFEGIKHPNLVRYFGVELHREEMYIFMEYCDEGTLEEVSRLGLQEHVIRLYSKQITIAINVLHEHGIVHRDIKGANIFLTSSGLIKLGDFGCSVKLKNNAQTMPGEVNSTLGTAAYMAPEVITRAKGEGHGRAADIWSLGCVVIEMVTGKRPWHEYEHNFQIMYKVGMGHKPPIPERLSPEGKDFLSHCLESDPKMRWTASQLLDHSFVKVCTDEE
Experimental: as §1

[19] = molecular target: T19, panel of ninety-seven kinases (Homo sapiens, UniProt P24941); details: CDK2; screened at 3000 nM
T19 construct: purchased DiscoverX; host or cells: E. coli (BL21-derived, T7 phage display) or HEK-293
Experimental: as §1

[20] = molecular target: T20, panel of ninety-seven kinases (Homo sapiens, UniProt P09619); details: PDGFRB; screened at 3000 nM
T20 construct: purchased DiscoverX; host or cells: E. coli (BL21-derived, T7 phage display) or HEK-293
Experimental: as §1

[21] = molecular target: T21, panel of ninety-seven kinases (Homo sapiens, UniProt O96013); details: PAK4; screened at 3000 nM
T21 construct: purchased DiscoverX; host or cells: E. coli (BL21-derived, T7 phage display) or HEK-293
T21 sequence (O96013 whole entry): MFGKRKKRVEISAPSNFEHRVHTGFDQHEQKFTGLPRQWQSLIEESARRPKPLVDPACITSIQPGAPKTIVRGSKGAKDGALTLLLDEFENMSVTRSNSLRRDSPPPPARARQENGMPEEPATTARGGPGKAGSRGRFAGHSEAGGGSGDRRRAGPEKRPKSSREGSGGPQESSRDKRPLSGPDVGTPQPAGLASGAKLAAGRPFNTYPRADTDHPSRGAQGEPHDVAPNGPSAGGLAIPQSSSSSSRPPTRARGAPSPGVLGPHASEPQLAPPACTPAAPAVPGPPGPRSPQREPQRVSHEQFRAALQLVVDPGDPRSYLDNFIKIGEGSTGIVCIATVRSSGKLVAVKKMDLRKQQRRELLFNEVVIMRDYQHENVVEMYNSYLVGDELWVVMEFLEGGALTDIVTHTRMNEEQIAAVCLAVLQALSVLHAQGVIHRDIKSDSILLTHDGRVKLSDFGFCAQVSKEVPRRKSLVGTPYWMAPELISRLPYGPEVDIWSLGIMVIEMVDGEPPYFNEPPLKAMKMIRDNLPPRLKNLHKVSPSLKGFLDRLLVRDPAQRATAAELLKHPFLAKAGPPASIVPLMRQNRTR
Experimental: as §1

[22] = molecular target: T22, panel of ninety-seven kinases (Homo sapiens, UniProt P52333); details: JAK3; screened at 3000 nM
T22 construct: purchased DiscoverX; host or cells: E. coli (BL21-derived, T7 phage display) or HEK-293
Experimental: as §1

CN(C)CCNC(=O)c1ccc(-c2ccc(-c3ccc(Cl)cc3)n2-c2ccccc2C(F)(F)F)cc1 (single isomer, unassigned) [Atropisomer A-2]
% Ctrl @ 3 μM [1]: 100 % Ctrl | % Ctrl @ 3 μM [2]: 100 % Ctrl | % Ctrl @ 3 μM [3]: 100 % Ctrl | % Ctrl @ 3 μM [4]: 100 % Ctrl | % Ctrl @ 3 μM [5]: 93 % Ctrl | % Ctrl @ 3 μM [6]: 89 % Ctrl | % Ctrl @ 3 μM [7]: 100 % Ctrl | % Ctrl @ 3 μM [8]: 87 % Ctrl | % Ctrl @ 3 μM [9]: 85 % Ctrl | % Ctrl @ 3 μM [10]: 100 % Ctrl | % Ctrl @ 3 μM [11]: 100 % Ctrl | % Ctrl @ 3 μM [12]: 99 % Ctrl | % Ctrl @ 3 μM [13]: 100 % Ctrl | % Ctrl @ 3 μM [14]: 100 % Ctrl | % Ctrl @ 3 μM [15]: 63 % Ctrl | % Ctrl @ 3 μM [16]: 96 % Ctrl | % Ctrl @ 3 μM [17]: 97 % Ctrl | % Ctrl @ 3 μM [18]: 93 % Ctrl | % Ctrl @ 3 μM [19]: 94 % Ctrl | % Ctrl @ 3 μM [20]: 100 % Ctrl | % Ctrl @ 3 μM [21]: 100 % Ctrl | % Ctrl @ 3 μM [22]: 100 % Ctrl
